Experimental data from ChEMBL document CHEMBL2321853, “Novel acylethanolamide derivatives that modulate body weight through enhancement of hypothalamic pro-opiomelanocortin (POMC) and/or decreased neuropeptide Y (NPY)” (J Med Chem, 2013).

How the values were obtained:
[1] = biological target: Transient receptor potential cation channel subfamily V member 1 (Homo sapiens, UniProt Q8NER1); assay: Agonist activity at TRPV1 receptor (unknown origin)
[2] = system: Mus musculus; assay: Antiobesity activity in Sabra mouse assessed as reduction in body weight at 1 mg/kg, ip administered on day 0, 10, 11, 12, 24, 29 measured on day 39 relative to control; assay type: functional; parameters: scale not given: the % may be the effect or the level left; settings: route intraperitoneal
[3] = system: Mus musculus; assay: Antiobesity activity in Sabra mouse assessed as reduction in body weight at 1 mg/kg, ip administered on day 0, 10, 11, 12, 24, 29 measured on day 36 relative to control; assay type: functional; parameters: scale not given: the % may be the effect or the level left; settings: route intraperitoneal
[4] = system: Mus musculus; assay: Antiobesity activity in Sabra mouse assessed as reduction in body weight at 1 mg/kg, ip administered on day 0, 10, 11, 12, 24, 29 measured on day 29 relative to control; assay type: functional; parameters: scale not given: the % may be the effect or the level left; settings: route intraperitoneal
[5] = system: Mus musculus; assay: Antiobesity activity in Sabra mouse assessed as reduction in body weight at 1 mg/kg, ip administered on day 0, 10, 11, 12, 24, 29 measured on day 33 relative to control; assay type: functional; parameters: scale not given: the % may be the effect or the level left; settings: route intraperitoneal
[6] = system: Mus musculus; assay: Antiobesity activity in Sabra mouse assessed as reduction in body weight at 1 mg/kg, ip administered on day 0, 10, 11, 12, 24, 29 measured on day 26 relative to control; assay type: functional; parameters: scale not given: the % may be the effect or the level left; settings: route intraperitoneal
[7] = system: Mus musculus; assay: Antiobesity activity in Sabra mouse assessed as reduction in body weight at 1 mg/kg, ip administered on day 0, 10, 11, 12, 24, 29 measured on day 24 relative to control; assay type: functional; parameters: scale not given: the % may be the effect or the level left; settings: route intraperitoneal
[8] = system: Mus musculus; assay: Antiobesity activity in Sabra mouse assessed as reduction in body weight at 1 mg/kg, ip administered on day 0, 10, 11, 12, 24, 29 measured on day 22 relative to control; assay type: functional; parameters: scale not given: the % may be the effect or the level left; settings: route intraperitoneal
[9] = system: Mus musculus; assay: Antiobesity activity in Sabra mouse assessed as reduction in body weight at 1 mg/kg, ip administered on day 0, 10, 11, 12, 24, 29 measured on day 19 relative to control; assay type: functional; parameters: scale not given: the % may be the effect or the level left; settings: route intraperitoneal
[10] = system: Mus musculus; assay: Antiobesity activity in Sabra mouse assessed as reduction in body weight at 1 mg/kg, ip administered on day 0, 10, 11, 12, 24, 29 measured on day 12 relative to control; assay type: functional; parameters: scale not given: the % may be the effect or the level left; settings: route intraperitoneal
[11] = biological target: T1, Glucose-dependent insulinotropic receptor (Homo sapiens, UniProt Q8TDV5); assay: Agonist activity at recombinant GPR119 receptor (unknown origin)
T1 sequence (Q8TDV5 whole entry): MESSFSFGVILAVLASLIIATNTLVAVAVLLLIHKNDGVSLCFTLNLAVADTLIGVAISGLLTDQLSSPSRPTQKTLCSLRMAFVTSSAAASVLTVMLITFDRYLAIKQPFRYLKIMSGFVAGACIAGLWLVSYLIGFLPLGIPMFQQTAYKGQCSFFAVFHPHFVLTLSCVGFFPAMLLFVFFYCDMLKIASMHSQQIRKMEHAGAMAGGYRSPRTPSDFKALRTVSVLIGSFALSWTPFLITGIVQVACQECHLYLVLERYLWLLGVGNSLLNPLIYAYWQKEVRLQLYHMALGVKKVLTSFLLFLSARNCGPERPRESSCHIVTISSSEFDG

Transient receptor potential cation channel subfamily V member 1, sequence (Q8NER1 whole entry): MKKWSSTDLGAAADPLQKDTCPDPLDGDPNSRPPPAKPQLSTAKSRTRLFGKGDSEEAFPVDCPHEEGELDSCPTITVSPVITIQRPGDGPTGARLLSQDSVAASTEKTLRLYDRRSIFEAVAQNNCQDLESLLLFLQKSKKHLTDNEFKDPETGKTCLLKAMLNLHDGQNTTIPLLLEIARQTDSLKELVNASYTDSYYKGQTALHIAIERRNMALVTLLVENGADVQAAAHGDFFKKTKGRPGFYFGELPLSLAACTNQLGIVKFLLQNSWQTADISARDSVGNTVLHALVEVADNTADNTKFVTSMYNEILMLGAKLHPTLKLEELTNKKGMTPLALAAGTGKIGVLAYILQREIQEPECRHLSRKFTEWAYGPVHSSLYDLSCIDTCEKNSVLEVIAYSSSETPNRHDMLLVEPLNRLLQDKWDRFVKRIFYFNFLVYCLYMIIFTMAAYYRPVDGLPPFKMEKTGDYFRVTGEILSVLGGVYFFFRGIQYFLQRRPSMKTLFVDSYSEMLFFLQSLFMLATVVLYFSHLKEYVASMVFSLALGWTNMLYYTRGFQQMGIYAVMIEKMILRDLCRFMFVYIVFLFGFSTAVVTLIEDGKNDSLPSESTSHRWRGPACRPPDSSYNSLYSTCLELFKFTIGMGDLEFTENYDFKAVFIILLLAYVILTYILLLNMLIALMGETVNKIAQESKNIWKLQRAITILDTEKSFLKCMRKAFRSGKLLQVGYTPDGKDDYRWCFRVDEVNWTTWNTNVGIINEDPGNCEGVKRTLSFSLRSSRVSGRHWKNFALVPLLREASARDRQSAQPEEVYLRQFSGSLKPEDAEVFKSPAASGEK

SMILES	EC50 [1]	Activity [2]	Activity [3]	Activity [4]	Activity [5]	Activity [6]	Activity [7]	Activity [8]	Activity [9]	Activity [10]	EC50 [11]
CCCCC/C=C\C/C=C\C/C=C\C/C=C\CCCC(=O)NCCO [ANANDAMIDE]	15.8 nM	–	–	–	–	–	–	–	–	–	–
CCCCCCCC/C=C\CCCCCCCC(=O)N(C)CCO	–	-3.67%	-3.28%	-1.44%	-0.3%	-0.5%	0.03%	-0.48%	-0.48%	-0.61%	–
CCCCC/C=C\C/C=C\CCCCCCCC(=O)NCCO [LINOLEOYLETHANOLAMIDE]	630 nM	–	–	–	–	–	–	–	–	–	–
CCCCCCCC/C=C\CCCCCCCC(=O)NCCO [OLEOYLETHANOLAMIDE]	40 nM	-3.42%	-2.57%	-0.2%	-0.15%	1.43%	-0.18%	-1.17%	-1.17%	-0.23%	3200 nM
